Reference: patent US6075006A, “Soluble tachykinin antagonists, the preparation and use thereof” (Centro Interuniversitario di Ricera Sui Peptidi …, priority 1996, dated 2000)
In brackets after ≈: the same amount, converted by molar mass. Where two headings read alike, the source gives them in different places. Bridge positions count the residues as written; N and C are the ends. Square brackets hold non-standard residues; d marks the D form. Peptide text beside a SMILES is read from it. * marks the point of attachment. βGal = OC[C@H]1O[C@@H](*)[C@H](O)[C@@H](O)[C@H]1O; X1 = OC[C@H]1O[C@@H](N*)[C@H](O)[C@@H](O)[C@H]1O; Dap = NC[C@H](N)C(=O)O

Assays:
[1] = Water solubility; format: physicochemical; details: table of example 2
[2] = water solubility of known insoluble antagonists, stated in the description; cited from earlier work

Compound | Solubility [1] | Solubility [2]
CC(C)C[C@@H]1NC(=O)[C@@H]2CNC(=O)C[C@H](NC(=O)[C@H](CO[C@@H]3O[C@H](CO)[C@H](O)[C@H](O)[C@H]3O)NC1=O)C(=O)N[C@@H](Cc1c[nH]c3ccccc13)C(=O)N[C@@H](Cc1ccccc1)C(=O)N2 [Comparative example 1, cyclo[Ser^1 (β-D-Gal)-Asp^2 -Trp^3 -Phe^4 -Dap^5 -Leu^6]cyclo(2β-5β)] (cyclo(DWF[Dap]LS(βGal)); lactam 1-4) | 2.020 µg/mL (≈ 2.3 µM) | 
CC(C)C[C@@H]1NC(=O)[C@@H]2CNC(=O)C[C@H](NC(=O)[C@H](CC(=O)N[C@@H]3O[C@H](CO)[C@H](O)[C@H](O)[C@H]3O)NC1=O)C(=O)N[C@@H](Cc1c[nH]c3ccccc13)C(=O)N[C@@H](Cc1ccccc1)C(=O)N2 [Comparative example 2, cyclo[Asn^1 (β-D-Gal)-Asp^2 -Trp^3 -Phe^4 -Dap^5 -Leu^6]cyclo(2β-5β)] (cyclo(D(X1)DWF[Dap]L); lactam 2-5) | 1.980 µg/mL (≈ 2.19 µM) | 
CC(C)C[C@@H]1NC(=O)[C@@H]2CNC(=O)C[C@H](NC(=O)[C@H](CS[C@@H]3O[C@H](CO)[C@H](O)[C@H](O)[C@H]3O)NC1=O)C(=O)N[C@@H](Cc1c[nH]c3ccccc13)C(=O)N[C@@H](Cc1ccccc1)C(=O)N2 [Example 1, cyclo[Cys^1 (β-D-Gal)-Asp^2 -Trp^3 -Phe^4 -Dap^5 -Leu^6]cyclo(2β-5β)] (cyclo(C(βGal)DWF[Dap]L); lactam 2-5) | 1.800 µg/mL (≈ 2.01 µM) | 
CSCC[C@@H]1NC(=O)[C@H](CC(C)C)NC(=O)[C@@H]2CNC(=O)C[C@H](NC1=O)C(=O)N[C@@H](Cc1c[nH]c3ccccc13)C(=O)N[C@@H](Cc1ccccc1)C(=O)N2 [MEN 10627] (cyclo(DWF[Dap]LM); lactam 1-4) | 15 µg/mL (≈ 19.7 µM) | 15 µg/mL (≈ 19.7 µM)
